Tested on: patients with RET fusion-positive NSCLC
Assay: Phase 2 trial: adverse events (CTCAE)
Type: in vivo, human
Excerpt: The phase 2 trial was still ongoing. It was a single-arm, multicenter, open-label, nonrandomized study to assess the efficacy and safety of HA121-28 in RET-fusion-positive NSCLC.
Patients aged 18–75 years (inclusive) who had unresectable locally advanced or metastatic NSCLC through histologically or cytologically examination were enrolled. Patients were also required to have documented RET fusions centrally examined by next-generation sequencing in certified laboratories but without other oncogenic alterations. Had progression on at least one previous line of standard treatment but have no previous use of other anti-RET inhibitors. The complete lists of inclusion and exclusion criteria of phase 1 and phase 2 are provided in both protocols (in Supplement).
In phase 1 trial, during the dose-escalation part, patients first administered HA121-28 in a single ascending dose under the fasted state, then followed up for seven days. Then, patients received ascending doses of HA121-28 (q.d.) on a 21-day on and 7-day off treatment scheme for a 28-day cycle. For patients deemed beneficial from the treatment by investigators, treatment could remain until disease progression, or they discontinued from the study. In the dose-expansion part of phase 1, as well as phase 2, patients received HA121-28 (q.d.) at the selected doses on a 21-day on and 7-day off treatment scheme until disease progression, or they discontinued from the study.
Treatment-emergent adverse events (TEAEs) were documented during the entire study period. The predefined adverse event of special interest (AESI) was ≥ grade 3 prolonged QT interval. Tumor imaging was performed using contrast-enhanced computed tomography or magnetic resonance imaging at screening, Day 28 of the first cycle, then approximately every eight weeks till the end of the study for phase 1; in phase 2, imaging was scheduled at screening, and every eight weeks during the first 40 weeks, followed by every 12 weeks for the rest of the study period. RECIST 1.1 was used by the independent review committee or investigators for assessment of tumor response. After the original assessment, a repeated assessment was required around four weeks later to confirm a complete or partial response.
The primary endpoint of phase 2 was the independent review committee evaluated ORR using RECIST 1.1. The secondary endpoints included investigators assessed ORR; DCR, PFS, and DOR by the independent review committee and investigators; overall survival and TEAEs. Each TEAE was graded according to CTCAE version 5.0 and coded by MedDRA (version 24.0). The phase 2 trial is ongoing; not all endpoints are reported in this paper.

## COc1cc2c(Nc3ccc(Br)cc3F)ncnc2cc1OCCCCN(C)C.Cl.Cl [HA121-28, N-(4-bromo-2-fluorophenyl)-7-(4-(dimethylamino)butoxy)-6-methoxy quinazolin-4-amine dihydrochloride]
Phase 2 (N=48), 450 mg
  TEAE, All: ALT increased: 20 (41.7) count (percentage)
  TEAE, All: AST increased: 21 (43.8) count (percentage)
  TEAE, All: Anemia: 5 (10.4) count (percentage)
  TEAE, All: Any: 48 (100) count (percentage)
  TEAE, All: Asthenia: 7 (14.6) count (percentage)
  TEAE, All: Blood ALP increased: 5 (10.4) count (percentage)
  TEAE, All: Blood creatinine increased: 9 (18.8) count (percentage)
  TEAE, All: COVID-19: 7 (14.6) count (percentage)
  TEAE, All: Cough: 6 (12.5) count (percentage)
  TEAE, All: Decreased appetite: 5 (10.4) count (percentage)
  TEAE, All: Diarrhea: 35 (72.9) count (percentage)
  TEAE, All: Dizziness: 3 (6.3) count (percentage)
  TEAE, All: Electrocardiogram T wave abnormal: 5 (10.4) count (percentage)
  TEAE, All: Fecal occult blood positive: 0 count (percentage)
  TEAE, All: GGT increased: 6 (12.5) count (percentage)
  TEAE, All: Hypertension: 11 (22.9) count (percentage)
  TEAE, All: Hypertriglyceridemia: 7 (14.6) count (percentage)
  TEAE, All: Hypoalbuminemia: 4 (8.3) count (percentage)
  TEAE, All: Hypokalemia: 11 (22.9) count (percentage)
  TEAE, All: Hyponatremia: 5 (10.4) count (percentage)
  TEAE, All: Nausea: 3 (6.3) count (percentage)
  TEAE, All: Neutrophil counts decreased: 7 (14.6) count (percentage)
  TEAE, All: Platelet counts decreased: 6 (12.5) count (percentage)
  TEAE, All: Prolonged QT interval: 21 (43.8) count (percentage)
  TEAE, All: Proteinuria: 16 (33.3) count (percentage)
  TEAE, All: Rash: 30 (62.5) count (percentage)
  TEAE, All: Sinus tachycardia: 5 (10.4) count (percentage)
  TEAE, All: Urinary tract infection: 5 (10.4) count (percentage)
  TEAE, All: Vomiting: 6 (12.5) count (percentage)
  TEAE, All: Weight loss: 5 (10.4) count (percentage)
  TEAE, All: White blood cell counts decreased: 8 (16.7) count (percentage)
  TEAE, ≥ Grade 3: ALT increased: 3 (6.3) count (percentage)
  TEAE, ≥ Grade 3: AST increased: 2 (4.2) count (percentage)
  TEAE, ≥ Grade 3: Anemia: 0 count (percentage)
  TEAE, ≥ Grade 3: Any: 35 (72.9) count (percentage)
  TEAE, ≥ Grade 3: Asthenia: 0 count (percentage)
  TEAE, ≥ Grade 3: Blood ALP increased: 0 count (percentage)
  TEAE, ≥ Grade 3: Blood creatinine increased: 0 count (percentage)
  TEAE, ≥ Grade 3: COVID-19: 1 (2.1) count (percentage)
  TEAE, ≥ Grade 3: Cough: 0 count (percentage)
  TEAE, ≥ Grade 3: Decreased appetite: 1 (2.1) count (percentage)
  TEAE, ≥ Grade 3: Diarrhea: 6 (12.5) count (percentage)
  TEAE, ≥ Grade 3: Dizziness: 0 count (percentage)
  TEAE, ≥ Grade 3: Electrocardiogram T wave abnormal: 0 count (percentage)
  TEAE, ≥ Grade 3: Fecal occult blood positive: 0 count (percentage)
  TEAE, ≥ Grade 3: GGT increased: 0 count (percentage)
  TEAE, ≥ Grade 3: Hypertension: 9 (18.8) count (percentage)
  TEAE, ≥ Grade 3: Hypertriglyceridemia: 0 count (percentage)
  TEAE, ≥ Grade 3: Hypoalbuminemia: 0 count (percentage)
  TEAE, ≥ Grade 3: Hypokalemia: 3 (6.3) count (percentage)
  TEAE, ≥ Grade 3: Hyponatremia: 0 count (percentage)
  TEAE, ≥ Grade 3: Nausea: 0 count (percentage)
  TEAE, ≥ Grade 3: Neutrophil counts decreased: 2 (4.2) count (percentage)
  TEAE, ≥ Grade 3: Platelet counts decreased: 0 count (percentage)
  TEAE, ≥ Grade 3: Prolonged QT interval: 15 (31.3) count (percentage)
  TEAE, ≥ Grade 3: Proteinuria: 0 count (percentage)
  TEAE, ≥ Grade 3: Rash: 1 (2.1) count (percentage)
  TEAE, ≥ Grade 3: Sinus tachycardia: 0 count (percentage)
  TEAE, ≥ Grade 3: Urinary tract infection: 1 (2.1) count (percentage)
  TEAE, ≥ Grade 3: Vomiting: 0 count (percentage)
  TEAE, ≥ Grade 3: Weight loss: 0 count (percentage)
  TEAE, ≥ Grade 3: White blood cell counts decreased: 1 (2.1) count (percentage)
Phase 2, 450 mg (N=48)
  Serious TEAE: ALT increased: 1 (2.1) No. (%)
  Serious TEAE: AST increased: 1 (2.1) No. (%)
  Serious TEAE: Abdominal Pain: 1 (2.1) No. (%)
  Serious TEAE: Abdominal distension: 1 (2.1) No. (%)
  Serious TEAE: Acute cholecystitis: 0 No. (%)
  Serious TEAE: Acute pancreatitis: 0 No. (%)
  Serious TEAE: Anal abscess: 0 No. (%)
  Serious TEAE: Any: 19 (39.6) No. (%)
  Serious TEAE: Aortic intramural hematoma: 0 No. (%)
  Serious TEAE: Arrhythmia: 0 No. (%)
  Serious TEAE: Blood bilirubin increased: 0 No. (%)
  Serious TEAE: Blood creatinine increased: 0 No. (%)
  Serious TEAE: COVID-19: 1 (2.1) No. (%)
  Serious TEAE: Cardiac tamponade: 0 No. (%)
  Serious TEAE: Coronary artery atherosclerosis: 1 (2.1) No. (%)
  Serious TEAE: Death: 1 (2.1) No. (%)
  Serious TEAE: Diarrhea: 1 (2.1) No. (%)
  Serious TEAE: Drug eruption: 0 No. (%)
  Serious TEAE: Dyspnea: 1 (2.1) No. (%)
  Serious TEAE: Embolism: 1 (2.1) No. (%)
  Serious TEAE: Erythema multiforme: 1 (2.1) No. (%)
  Serious TEAE: Headache: 1 (2.1) No. (%)
  Serious TEAE: Hemoptysis: 0 No. (%)
  Serious TEAE: Hydronephrosis: 1 (2.1) No. (%)
  Serious TEAE: Hypertension: 2 (4.2) No. (%)
  Serious TEAE: Hypoalbuminemia: 0 No. (%)
  Serious TEAE: Intestinal obstruction: 0 No. (%)
  Serious TEAE: Intra-abdominal fluid collection: 1 (2.1) No. (%)
  Serious TEAE: Intracranial tumor hemorrhage: 1 (2.1) No. (%)
  Serious TEAE: Liver injury: 0 No. (%)
  Serious TEAE: Lung adenocarcinoma: 1 (2.1) No. (%)
  Serious TEAE: Malignant neoplasm progression: 1 (2.1) No. (%)
  Serious TEAE: Multiple organ dysfunction syndrome: 0 No. (%)
  Serious TEAE: Nausea: 0 No. (%)
  Serious TEAE: Nephrolithiasis: 1 (2.1) No. (%)
  Serious TEAE: Platelet counts decreased: 0 No. (%)
  Serious TEAE: Pleural effusion: 0 No. (%)

Reference: publication PMC11868595, “Safety, pharmacokinetics and efficacy of HA121-28 in patients with advanced solid tumors and RET fusion-positive non-small-cell lung cancer: a multicenter, open-label, single-arm phase 1/2 trial” (Signal Transduction and Targeted Therapy, 2025)
